The text below walks through data of patent publication US20250122234A1, “NOVEL CRYSTALLINE FORM OF [(2R,3S,4R,5R)-3,4-DIHYDROXY-5-[4-(HYDROXYAMINO)-2- OXOPYRIMIDIN-1-YL]OXOLAN-2-YL]METHYL-2-METHYLPROPANOATE” (priority 2021, published 2025).

In data set [1] the test system is influenza A viruses. Further details: species or system mice. Conditions: mouse, in vivo, po.
Data set [2] in a line: hygroscopicity, weight increase on exposure to water vapor in climatic chamber. Conditions: 24 hours, temperature (25±1)°C, relative humidity (80±2)%, 200 mg sample. The data set is classed as physicochemical.
A short description of data set [3]: study of physicochemical and technological properties.

As to `CC(C)C(=O)OC[C@H]1O[C@@H](n2ccc(NO)nc2=O)[C@H](O)[C@@H]1O` [Polymorph I, [(2R,3S,4R,5R)-3,4-dihydroxy-5-[4-(hydroxyamino)-2-oxopyrimidin-1-yl]oxolan-2-yl]methyl-2-methylpropanoate], in data set [1], the “clinical symptoms of the disease” value was “some animals showed a decrease in body weight and shortness of breath”; the “titer of the virus in the nasal wash and fever” value (“titer of the virus” for short) is “a decrease in the titer of the virus in the nasal wash and a decrease in fever”. In data set [2], the “X (%), increase in the weight of the test substance” value (shortened to “X (%), increase in the weight”) is 4.1%.
Consider `CC(C)C(=O)OC[C@H]1O[C@@H](n2ccc(NO)nc2=O)[C@H](O)[C@@H]1O` [Polymorph II, [(2R,3S,4R,5R)-3,4-dihydroxy-5-[4-(hydroxyamino)-2-oxopyrimidin-1-yl]oxolan-2-yl]methyl-2-methylpropanoate], for which, in data set [1], the “clinical symptoms of the disease” value was “some animals showed a decrease in body weight and shortness of breath”; the “titer of the virus” value is “a decrease in the titer of the virus in the nasal wash and a decrease in fever”. Besides, the “X (%), increase in the weight” value in data set [2] is recorded as 5.2%.
Regarding `CC(C)C(=O)OC[C@H]1O[C@@H](n2ccc(NO)nc2=O)[C@H](O)[C@@H]1O` [[(2R,3S,4R,5R)-3,4-dihydroxy-5-[4-(hydroxyamino)-2-oxopyrimidin-1-yl]oxolan-2-yl]methyl-2-methylpropanoate], in data set [1], the “clinical symptoms of the disease” value was “clinical symptoms of the disease were practically not recorded”; the “titer of the virus” value is “a decrease in the titer of the virus in the nasal wash and a decrease in fever”; the “virus titer in the nasal wash, less than in groups 2 and 3 (crystal forms I, II)” value is on record as “approximately 20%”. The “X (%), increase in the weight” value in data set [2] is listed as 0.5%. For the same compound, in data set [3], the solubility entry is “higher solubility” and the stability entry is given as “improving the stability”.
